Reference: PMC5193075 (The Journal of Pharmacology and Experimental Therapeutics, 2017)

Legend:
[1] = tested on: cryopreserved human primary hepatocytes; test: Drug depletion; conditions: for interwell variability in unbound intrinsic clearance (IWV) / interdonor variability in unbound intrinsic clearance (IDV): parentheses = relative standard error; for interdonor variability in unbound intrinsic clearance (IDV): individual-donor data; for CLint(u) ratio individual-donor/pooled hepatocytes: parentheses = 95% confidence intervals (Fieller's theorem)
[2] = Unbound drug fraction in cell culture medium by rapid equilibrium dialysis; format: in vitro ADME; conditions: bovine, bovine serum albumin-containing cell culture medium
[3] = Prediction of in vivo hepatic clearance from liver MPS data; parameters: species or system human
[4] = individual-donor data (within donor)

interwell variability in unbound intrinsic clearance (IWV) [1, 4] | interdonor variability in unbound intrinsic clearance (IDV) [1] | CLint(u) ratio individual-donor/pooled hepatocytes [1] | fraction unbound [2] | interdonor variability in unbound intrinsic clearance (IDV) ([1]; listed as phenacetin) [CV%] | interwell variability in unbound intrinsic clearance (IWV) ([1]; pooled hepatocytes data) | fold-error (underprediction) of in vivo hepatic clearance ([3]; parallel tube (PT) liver model) [fold] | fold-error (underprediction) of in vivo hepatic clearance ([3]; well stirred (WS) liver model) [fold] | Compound
21.5% (70.0%) CV% | 29.3% (58.1%) CV% | 0.89 (0.63, 1.16) | 0.94 | – | – | – | – | C[C@]12C=CC(=O)C=C1CC[C@@H]1[C@@H]2[C@@H](O)C[C@@]2(C)[C@H]1CC[C@]2(O)C(=O)CO [Prednisolone, prednisolone]
26.1% (65.2%) CV% | 24.1% (80.4%) CV% | 0.92 (0.61, 1.47) | 0.98 | 24.1 | 30.7% (41.5%) CV% | 1.7 | 2.1 | CCOc1ccc(NC(C)=O)cc1 [Phenacetin, phenacetin]
– | 36.2% (71.5%) CV% | – | 0.13 | – | – | – | – | O=C(O)Cc1ccccc1Nc1c(Cl)cccc1Cl [Diclofenac, diclofenac]
– | – | – | 0.31 | – | – | – | – | CC(C)Cc1ccc(C(C)C(=O)O)cc1 (stereo not shown) [Ibuprofen, ibuprofen]
– | – | – | 0.98 | – | – | – | – | CC(C)NCC(O)COc1cccc2ccccc12 (stereo not shown) [Propranolol, propranolol]
